Tests used:
JAK1 = JAK1 (Homo sapiens, UniProt P23458); assay: JAK kinase inhibition assay (EZ Reader, peptide substrate phosphorylation) - JAK1; assay type: biochemical; details: JAK1 kinase 20 nM; 8 concentration points, max 10 μM
Excerpt: (§1) Assay for Identifying Inhibitory Effects of Compounds on JAK Kinases
(§2) Janus kinases (JAK), including JAK1, JAK2, JAK3 and Tyk2, transduce a cytokine-mediated signal through a JAK-STAT pathway. The kinases are 120-140 kDa in size and have 7 determined homology regions: JH1 to JH7. JH1 is an important region for enzymatic activity and has typical characteristics of tyrosine kinases. Phosphorylation of tyrosine leads to a change in the conformation of JAK protein, thereby promoting binding of substrate. The JAK-STAT system includes three main parts: receptors penetrating a cell membrane, Janus kinases binding to the receptors, and signal transducers and activators of transcription (STAT) for transmitting signals to a nucleus and DNA. When cytokines bind to receptors, JAK phosphorylates the receptors and attracts STAT proteins. The STAT proteins are also phosphorylated and combined with one another to form dimers. The dimers enter the nucleus and bind to DNA, thereby leading to gene transcription.
(§3) EZ Reader from PerkinElmer can be used to detect the phosphorylation of polypeptide substrates catalyzed by kinases. The device is based on microfluidic techniques, and can directly detect fluorescently labeled substrates and products. The separation step is achieved by controlling the pressure and electric field strength in the microfluidic chip. In kinase assays, a product conversion ratio is usually controlled to be 20-30%. A biological test is used to identify inhibitory effects of compounds on JAKs.
(§4) Compound powder was dissolved in DMSO, sealed and stored in a freezer under −20° C. The in-house compound Ref1 was used as a positive control for JAK1, JAK2 and Tyk2 tests, and Ref2 was used as a positive control for JAK3 tests.
(§5) S2.8. Assay buffer: 20 mM HEPES buffer, pH 7.4, 10 mM magnesium chloride, 0.01% bovine serum albumin BSA, 0.0005% Tween-20 and 1 mM dithiothreitol solution.
(§6) S2.9. Stop buffer: 180 mM HEPES buffer, 20 mM ethylenediaminetetraacetic acid and 0.2% coating reagent 3.
(§7) S2.10. Separation buffer: 100 mM HEPES buffer, 10 mM ethylenediaminetetraacetic acid, 0.0005% Tween 20, 0.1% coating reagent 3 and 1% dimethyl sulfoxide.
(§8) The compound was dissolved in dimethyl sulfoxide and diluted to 10 mM concentration, a certain volume of solution was taken and diluted to 0.6 mM concentration, 10 μL of the 0.6 mM dilution was added to a 384-well microplate, and then was diluted 3-fold with a total of 8 concentration points.
(§9) Positive control (HPE1): Ref1, final concentration: 10 μM […]
(§10) Negative control (ZPE): DMSO, final content: 1.6%
(§11) Compounds: maximum final concentration: 10 μM; 3-fold dilution, 8 concentration points and 2 duplicates.
(§12) S4.1. 250 nL of the compound was added to each well of the assay microplate by using ECHO, and centrifuged at 1000 rpm for 1 minute.
(§13) S4.2. 5 μL of the assay buffer was added and agitated for a few seconds to fully dissolve the compound.
(§14) S4.3. 5 μL of 3× substrate solution and 5 μL of 3× kinase solution were added and centrifuged at 800 rpm for 1 minute.
(§15) S4.4. Final concentrations of JAK1, JAK2, JAK3 and Tyk2 kinases in the reaction system were 20 nM, 1 nM, 1 nM and 1 nM respectively.
(§16) S4.5. Incubation at room temperature, where kinases had time differences, and different batches of kinases had time differences.
(§17) S4.6. When 20%-30% of the reaction completed, 15 μL of stop buffer was added to stop the reaction, and centrifuged at 1000 rpm for 2 minutes.
(§18) S4.7. The microplates were placed on EZ Reader for reading.
(§19) S4.8. Readings on EZ Reader were calculated by using a peak height, where product conversion ratio (%)=product/(product+substrate)*100.
(§20) 5. Data Processing: IC50 calculation
(§21) A graphing software Xlfit was used to form a concentration curve of the test compound, and an IC50 value was calculated.
(§22) “A” means “≥10 μM”; “B” means “≥1 μM and <10 μM”; “C” means “≥0.1 μM and <1 μM”; and “D” means “<0.1 μM”.

Tyk2 = Tyk2 (Homo sapiens, UniProt P29597); assay: JAK kinase inhibition assay (EZ Reader, peptide substrate phosphorylation) - Tyk2; assay type: biochemical; details: Tyk2 kinase 1 nM; 8 concentration points, max 10 μM
Excerpt: as §1, §2, §3, §4, §5, §6, §7, §8, §9, §10, §11, §12, §13, §14, §15, §16, §17, §18, §19, §20, §21, §22

Tyk2, sequence (P29597 whole entry): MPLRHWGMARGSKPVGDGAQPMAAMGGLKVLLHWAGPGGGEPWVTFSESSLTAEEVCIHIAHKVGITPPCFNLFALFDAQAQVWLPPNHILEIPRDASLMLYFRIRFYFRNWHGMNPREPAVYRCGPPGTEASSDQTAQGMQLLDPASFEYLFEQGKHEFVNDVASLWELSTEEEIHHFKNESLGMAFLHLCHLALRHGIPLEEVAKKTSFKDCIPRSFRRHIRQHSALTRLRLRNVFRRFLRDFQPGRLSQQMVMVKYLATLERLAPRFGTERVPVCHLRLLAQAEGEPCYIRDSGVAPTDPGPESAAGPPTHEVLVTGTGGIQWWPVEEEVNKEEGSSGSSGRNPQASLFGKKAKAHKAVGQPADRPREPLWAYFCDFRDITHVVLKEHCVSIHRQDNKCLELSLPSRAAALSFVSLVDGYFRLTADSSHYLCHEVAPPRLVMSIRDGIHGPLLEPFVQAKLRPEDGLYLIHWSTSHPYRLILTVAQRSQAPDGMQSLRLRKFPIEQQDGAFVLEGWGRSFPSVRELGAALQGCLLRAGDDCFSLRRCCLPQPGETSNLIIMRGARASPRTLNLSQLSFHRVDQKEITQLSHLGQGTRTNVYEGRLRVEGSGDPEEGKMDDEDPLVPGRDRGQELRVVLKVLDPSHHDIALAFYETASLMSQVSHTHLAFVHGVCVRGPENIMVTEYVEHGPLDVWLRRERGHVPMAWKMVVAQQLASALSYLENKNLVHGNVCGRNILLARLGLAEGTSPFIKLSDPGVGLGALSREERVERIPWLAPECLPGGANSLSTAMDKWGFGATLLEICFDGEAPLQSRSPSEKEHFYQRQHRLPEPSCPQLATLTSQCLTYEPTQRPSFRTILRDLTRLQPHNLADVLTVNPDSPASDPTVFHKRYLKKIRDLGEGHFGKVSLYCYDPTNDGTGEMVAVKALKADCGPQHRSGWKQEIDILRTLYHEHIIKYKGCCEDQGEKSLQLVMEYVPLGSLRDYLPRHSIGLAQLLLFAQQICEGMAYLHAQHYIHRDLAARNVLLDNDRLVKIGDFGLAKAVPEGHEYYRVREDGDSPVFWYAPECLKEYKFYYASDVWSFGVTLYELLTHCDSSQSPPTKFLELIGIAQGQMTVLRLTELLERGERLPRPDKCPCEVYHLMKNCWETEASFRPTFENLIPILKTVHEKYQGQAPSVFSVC
JAK1, sequence (P23458 whole entry): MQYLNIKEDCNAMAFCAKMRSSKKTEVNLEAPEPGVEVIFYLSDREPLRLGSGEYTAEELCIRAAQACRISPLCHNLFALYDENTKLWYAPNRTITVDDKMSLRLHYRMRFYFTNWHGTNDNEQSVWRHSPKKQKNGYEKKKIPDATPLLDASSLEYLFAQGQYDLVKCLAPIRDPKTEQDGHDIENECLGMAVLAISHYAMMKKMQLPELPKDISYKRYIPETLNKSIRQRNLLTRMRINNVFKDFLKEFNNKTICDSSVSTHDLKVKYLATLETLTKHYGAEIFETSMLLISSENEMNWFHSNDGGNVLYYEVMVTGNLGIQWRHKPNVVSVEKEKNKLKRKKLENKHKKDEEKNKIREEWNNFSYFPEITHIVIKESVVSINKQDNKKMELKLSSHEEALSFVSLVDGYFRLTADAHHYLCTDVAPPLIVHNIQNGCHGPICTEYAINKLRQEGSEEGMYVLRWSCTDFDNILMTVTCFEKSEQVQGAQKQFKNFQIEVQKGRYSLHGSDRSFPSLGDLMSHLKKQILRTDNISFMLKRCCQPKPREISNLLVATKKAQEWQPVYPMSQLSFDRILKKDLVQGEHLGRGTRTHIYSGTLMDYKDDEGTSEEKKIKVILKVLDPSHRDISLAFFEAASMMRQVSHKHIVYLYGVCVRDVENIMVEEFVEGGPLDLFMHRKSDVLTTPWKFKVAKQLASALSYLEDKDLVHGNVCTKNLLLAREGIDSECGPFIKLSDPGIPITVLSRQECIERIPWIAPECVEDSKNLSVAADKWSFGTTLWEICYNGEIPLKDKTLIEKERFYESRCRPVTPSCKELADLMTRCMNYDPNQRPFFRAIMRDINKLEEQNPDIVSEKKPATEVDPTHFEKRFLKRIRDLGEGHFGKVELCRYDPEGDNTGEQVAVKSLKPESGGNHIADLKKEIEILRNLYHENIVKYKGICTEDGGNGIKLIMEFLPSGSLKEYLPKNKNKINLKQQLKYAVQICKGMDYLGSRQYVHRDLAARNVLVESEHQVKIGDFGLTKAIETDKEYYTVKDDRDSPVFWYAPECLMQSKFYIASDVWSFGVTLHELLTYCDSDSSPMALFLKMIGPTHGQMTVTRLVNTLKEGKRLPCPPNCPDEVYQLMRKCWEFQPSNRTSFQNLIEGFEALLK

Question: What does the source list for `Cn1cc(Nc2nccc(-c3ccc(C(=O)NC4CC4(F)F)nc3)n2)cn1` (centres unmarked) [TDM-180781, N-(2,2-difluorocyclopropyl)-5-(2-((1-methyl-1H-pyrazol-4-yl)amino)pyrimidin-4-yl)pyridinecarboxamide]?
Answer: IC50 (JAK1): 1 to 10 µM; IC50 (Tyk2): 1 to 10 µM

Question: Which IC50 (JAK1) does the source give for `CCS(=O)(=O)Nc1ncc(-c2ccnc(Nc3cnn(C)c3)n2)cn1` [TDM-180919, N-(2-((1-methyl-1H-pyrazol-4-yl)amino)-[4,5′-bipyrimidin]-2′-yl)ethanesulfonamide] here?
Answer: ≥ 10 µM

Question: What about the IC50 (Tyk2) of the same compound?
Answer: ≥ 10 µM

Question: For `Cn1cc(Nc2nccc(-c3cnc(NC(=O)CC(F)(F)F)c(F)c3)n2)cn1` [TDM-180889, 3,3,3-trifluoro-N-(3-fluoro-S-(2-((1-methyl-1H-pyrazol-4-yl)amino)pyrimidin-4-yl)pyridin-2-yl)propanamide], which IC50 (JAK1) is on record?
Answer: 0.1 to 1 µM

Question: What about the IC50 (Tyk2) of the same compound?
Answer: 1 to 10 µM

Question: How did the IC50 (JAK1) turn out when `COCCC(=O)Nc1ccc(-c2ccnc(Nc3cnn(C)c3)n2)cc1` [TDM-180799, 3-methoxy-N-(4-(2-((1-methyl-1H-pyrazol-4-yl)amino)pyrimidin-4-yl)phenyl)propanamide] was run?
Answer: 0.1 to 1 µM

Question: And the IC50 (Tyk2)?
Answer: 1 to 10 µM

Question: Which results are given for `Cn1cc(Nc2nccc(-c3ccc(NC(=O)C4CC4)c4[nH]ccc34)n2)cn1` [TDM-180869, N-(4-(2-((1-methyl-1H-pyrazol-4-yl)amino)pyrimidin-4-yl)-1H-indol-7-yl)cyclopropanecarboxamide]?
Answer: IC50 (JAK1): 0.1 to 1 µM; IC50 (Tyk2): 0.1 to 1 µM

Question: With `Cn1cc(Nc2nccc(-c3ccc(NS(=O)(=O)CCCF)cc3)n2)cn1` [TDM-180896, 3-fluoro-N-(4-(2-((1-methyl-1H-pyrazol-4-yl)amino)pyrimidin-4-yl)phenyl)propane-1-sulfonamide] as the compound, how does the IC50 (JAK1) read?
Answer: 0.1 to 1 µM

Question: And the IC50 (Tyk2)?
Answer: 0.1 to 1 µM

Question: For `Cn1cc(Nc2nccc(-c3cnc(NC(=O)C4CC4)cn3)n2)cn1` [TDM-180914, N-(5-(2-((1-methyl-1H-pyrazol-4-yl)amino)pyrimidin-4-yl)pyrazin-2-yl)cyclopropanemethane], which IC50 (JAK1) is on record?
Answer: 1 to 10 µM

Question: And the IC50 (Tyk2)?
Answer: 1 to 10 µM

Question: With `COCC(=O)Nc1ccc(-c2ccnc(Nc3cnn(C)c3)n2)cn1` [TDM-180831, 2-methoxy-N-(5-(2-((1-methyl-1H-pyrazol-4-yl)amino)pyrimidin-4-yl)pyridin-2-yl)acetamide] as the compound, how does the IC50 (JAK1) read?
Answer: 1 to 10 µM

Question: And the IC50 (Tyk2)?
Answer: ≥ 10 µM

Question: What does the source list for `Cn1cc(Nc2nccc(-c3cnc(NS(=O)(=O)Cc4ccccc4)c(F)c3)n2)cn1` [TDM-180913, N-(3-fluoro-5-(2-((1-methyl-1H-pyrazol-4-yl)amino)pyrimidin-4-yl)pyridin-2-yl)-1-phenylmethanesulfonamide]?
Answer: IC50 (JAK1): ≥ 10 µM; IC50 (Tyk2): ≥ 10 µM

Question: Which results are given for `Cn1cc(Nc2nccc(-c3ccc(NS(=O)(=O)CCC(F)(F)F)nc3)n2)cn1` [TDM-180895, 3,3,3-trifluoro-N-(5-(2-((1-methyl-1H-pyrazol-4-yl)amino)pyrimidin-4-yl)pyridin-2-yl)propane-1-sulfonamide]?
Answer: IC50 (JAK1): 1 to 10 µM; IC50 (Tyk2): ≥ 10 µM

Question: For `Cn1cc(Nc2nccc(-c3ccc(NC(=O)[C@@H]4CC4(F)F)nc3)n2)cn1` [TDM-180935, (S)-2,2-difluoro-N-(5-(2-((1-methyl-1H-pyrazol-4-yl)amino)pyrimidin-4-yl)pyridin-2-yl)cyclopropane-1-carboxamide], which IC50 (JAK1) is on record?
Answer: < 0.1 µM

Question: And the IC50 (Tyk2)?
Answer: < 0.1 µM

Question: How did the IC50 (JAK1) turn out when `Cn1cc(Nc2nccc(-n3ccc4c(NC(=O)CC#N)cccc43)n2)cn1` [TDM-180881, 2-cyano-N-(1-(2-((1-methyl-1H-pyrazol-4-yl)amino)pyrimidin-4-yl)-1H-indol-4-yl)acetamide] was run?
Answer: < 0.1 µM

Question: And the IC50 (Tyk2)?
Answer: 0.1 to 1 µM

Question: Which IC50 (JAK1) does the source give for `Cn1cc(Nc2nccc(-c3cnc(NC(=O)C4CC4(F)F)nc3)n2)cn1` (centres unmarked) [TDM-180886, 2,2-difluoro-N-(2-((1-methyl-1H-pyrazol-4-yl)amino)-[4,5′-bipyrimidin]-2′-yl)cyclopropane-1-carboxamide] here?
Answer: < 0.1 µM

Question: What about the IC50 (Tyk2) of the same compound?
Answer: 0.1 to 1 µM

Question: With `Cn1cc(Nc2nccc(-c3ccc(NS(=O)(=O)Cc4ccccc4)nc3)n2)cn1` [TDM-180897, N-(5-(2-((1-methyl-1H-pyrazol-4-yl)amino)pyrimidin-4-yl)pyridin-2-yl)-1-phenylmethanesulfonamide] as the compound, how does the IC50 (JAK1) read?
Answer: 0.1 to 1 µM

Question: What about the IC50 (Tyk2) of the same compound?
Answer: 0.1 to 1 µM

Question: With `Cn1cc(Nc2nccc(-c3ccc(NC(=O)C4(C)CC4)nc3)n2)cn1` [TDM-180853, 1-methyl-N-(5-(2-((1-methyl-1H-pyrazol-4-yl)amino)pyrimidin-4-yl)pyridin-2-yl)cyclopropane-1-carboxamide] as the compound, how does the IC50 (JAK1) read?
Answer: 1 to 10 µM

Question: What about the IC50 (Tyk2) of the same compound?
Answer: 1 to 10 µM

Question: Which IC50 (JAK1) does the source give for `Cn1cc(Nc2nccc(-c3ccc(NC(=O)[C@H]4CC4(F)F)nc3)n2)cn1` [TDM-180939, (R)-2,2-difluoro-N-(5-(2-((1-methyl-1H-pyrazol-4-yl)amino)pyrimidin-4-yl)pyridin-2-yl)cyclopropane-1-carboxamide] here?
Answer: < 0.1 µM

Question: What about the IC50 (Tyk2) of the same compound?
Answer: 0.1 to 1 µM

Question: Which results are given for `Cn1cc(Nc2nccc(-c3ccc(NC(=O)CC#N)c4[nH]ccc34)n2)cn1` [TDM-180867, 2-cyano-N-(4-(2-((1-methyl-1H-pyrazol-4-yl)amino)pyrimidin-4-yl)-1H-indol-7-yl)acetamide]?
Answer: IC50 (JAK1): 0.1 to 1 µM; IC50 (Tyk2): 0.1 to 1 µM

Question: Which results are given for `Cn1cc(Nc2nccc(-c3ccc(C(=O)NC4CC4)nc3)n2)cn1` [TDM-180826, N-cyclopropyl-5-(2-((1-methyl-1H-pyrazol-4-yl)amino)pyrimidin-4-yl)pyridinecarboxamide]?
Answer: IC50 (JAK1): 1 to 10 µM; IC50 (Tyk2): 1 to 10 µM

Question: `Cc1cc(-c2ccnc(Nc3cnn(C)c3)n2)ccc1-n1nccc1C1CC1` [TDM-180782, 4-(4-(5-cyclopropyl-1H-pyrazol-1-yl)-3-methylphenyl)-N-(1-methyl-1H-pyrazol-4-yl)pyrimidin-2-amine] was tested. Which IC50 (JAK1) did it give?
Answer: ≥ 10 µM

Question: What about the IC50 (Tyk2) of the same compound?
Answer: 1 to 10 µM

From patent US20240174648A1, “Small Molecule Compound” (Technoderma Medicines Pte Ltd, priority 2019, published 2024)
